Data reported in patent publication US20210053957A1, “HERBICIDAL COMPOUNDS” (SYNGENTA PARTICIPATIONS AG, priority 2018, published 2021).

What was measured:
Test in all cases: Post-emergence efficacy, glasshouse spray test
Assay type in all cases: in vivo
[1] = system: Lolium perenne (LOLPE); conditions: Application Rate 500 g/Ha, evaluated after 13 days; for pest or weed control at 500 g/ha: Lolium perenne, post-emergence, 312 h, read-out: Control of weed species after post-emergence application, LOLPE (100=total damage to plant; 0=no damage to plant)
Protocol: (§1) Seeds of a variety of test species were sown in standard soil in pots. After cultivation for 14 days (post-emergence) under controlled conditions in a glasshouse (at 24/16° C. day/night; 14 hours light; 65% humidity), the plants were sprayed with an aqueous spray solution derived from the dissolution of the technical active ingredient formula (I) in a small amount of acetone and a special solvent and emulsifier mixture referred to as IF50 (11.12% Emulsogen EL360 TM+44.44% N-methyl pyrrolidone+44.44% Dowanol DPM glycolether), to create a 50 g/l solution which was then diluted to required concentration using 0.25% or 1% Empicol ESC70 (Sodium lauryl ether sulphate)+1% ammonium sulphate as diluent. The test plants were then grown in a glasshouse under controlled conditions (at 24/16° C., day/night; 14 hours light; 65% humidity) and watered twice daily. After 13 days the test was evaluated (100=total damage to plant; 0=no damage to plant).
(§2) Ipomoea hederacea (IPOHE), Euphorbia heterophylla (EPHHL), Chenopodium album (CHEAL), Amaranthus palmeri (AMAPA), Lolium perenne (LOLPE), Digitaria sanguinalis (DIGSA), Eleusine indica (ELEIN), Echinochloa crus-galli (ECHCG), Setaia fabei (SETFA)

[2] = system: Ipomoea hederacea (IPOHE); conditions: Application Rate 500 g/Ha, evaluated after 13 days; for pest or weed control at 500 g/ha: Ipomoea hederacea, post-emergence, 312 h, read-out: Control of weed species after post-emergence application, IPOHE (100=total damage to plant; 0=no damage to plant)
Protocol: as §1, §2

[3] = system: Amaranthus palmeri (AMAPA); conditions: Application Rate 500 g/Ha, evaluated after 13 days; for pest or weed control at 500 g/ha: Amaranthus palmeri, post-emergence, 312 h, read-out: Control of weed species after post-emergence application, AMAPA (100=total damage to plant; 0=no damage to plant)
Protocol: as §1, §2

[4] = system: Eleusine indica (ELEIN); conditions: Application Rate 500 g/Ha, evaluated after 13 days; for pest or weed control at 500 g/ha: Eleusine indica, post-emergence, 312 h, read-out: Control of weed species after post-emergence application, ELEIN (100=total damage to plant; 0=no damage to plant)
Protocol: as §1, §2

[5] = system: Digitaria sanguinalis (DIGSA); conditions: Application Rate 500 g/Ha, evaluated after 13 days; for pest or weed control at 500 g/ha: Digitaria sanguinalis, post-emergence, 312 h, read-out: Control of weed species after post-emergence application, DIGSA (100=total damage to plant; 0=no damage to plant)
Protocol: as §1, §2

[6] = system: Echinochloa crus-galli (ECHCG); conditions: Application Rate 500 g/Ha, evaluated after 13 days; for pest or weed control at 500 g/ha: Echinochloa crus-galli, post-emergence, 312 h, read-out: Control of weed species after post-emergence application, ECHCG (100=total damage to plant; 0=no damage to plant)
Protocol: as §1, §2

[7] = system: Chenopodium album (CHEAL); conditions: Application Rate 500 g/Ha, evaluated after 13 days; for pest or weed control at 500 g/ha: Chenopodium album, post-emergence, 312 h, read-out: Control of weed species after post-emergence application, CHEAL (100=total damage to plant; 0=no damage to plant)
Protocol: as §1, §2

[8] = system: Setaia fabei (SETFA); conditions: Application Rate 500 g/Ha, evaluated after 13 days; for pest or weed control at 500 g/ha: Setaria faberi, post-emergence, 312 h, read-out: Control of weed species after post-emergence application, SETFA (100=total damage to plant; 0=no damage to plant)
Protocol: as §1, §2

Row | Compound | Control of weed species after post-emergence application, LOLPE (100=total damage to plant; 0=no damage to plant) [1] | Control of weed species after post-emergence application, IPOHE (100=total damage to plant; 0=no damage to plant) [2] | Control of weed species after post-emergence application, AMAPA (100=total damage to plant; 0=no damage to plant) [3] | Control of weed species after post-emergence application, ELEIN (100=total damage to plant; 0=no damage to plant) [4] | Control of weed species after post-emergence application, DIGSA (100=total damage to plant; 0=no damage to plant) [5] | Control of weed species after post-emergence application, ECHCG (100=total damage to plant; 0=no damage to plant) [6] | Control of weed species after post-emergence application, CHEAL (100=total damage to plant; 0=no damage to plant) [7] | Control of weed species after post-emergence application, SETFA (100=total damage to plant; 0=no damage to plant) [8] | pest or weed control at 500 g/ha [1] [%] | pest or weed control at 500 g/ha [2] [%] | pest or weed control at 500 g/ha [3] [%] | pest or weed control at 500 g/ha [4] [%] | pest or weed control at 500 g/ha [5] [%] | pest or weed control at 500 g/ha [6] [%] | pest or weed control at 500 g/ha [8] [%] | pest or weed control at 500 g/ha [7] [%]
1 | CC(C)c1csc(-c2cc[n+](CCC(=O)O)nc2)n1.O=C([O-])C(F)(F)F [Compound A24] | 10 | 10 | 0 | 20 | 10 | 30 | 0 | 20 | – | – | – | – | – | – | – | –
2 | O=S(=O)([O-])CC[n+]1ccc(-c2ccco2)cn1 [Compound A53] | – | – | – | – | – | – | – | – | 20 | 50 | 60 | 60 | 90 | 30 | 40 | –
3 | O=C(O)c1ccccc1C[n+]1ccc(-c2ncco2)cn1 [Compound A91] | – | – | – | – | – | – | – | – | 10 | 20 | 40 | 40 | 40 | 20 | 20 | 60
4 | O=C(O)CC[n+]1ccc(-c2ccco2)cn1 [Compound A52] | – | – | – | – | – | – | – | – | 0 | 10 | 50 | 10 | 30 | 10 | 10 | –
5 | COC(=O)CCC[n+]1ccc(-c2ncco2)cn1 [Compound A69] | – | – | – | – | – | – | – | – | 30 | 40 | 90 | 90 | 90 | 80 | 90 | 90
6 | O=C(O)CC[n+]1ccc(-c2cccs2)cn1 [Compound A41] | – | – | – | – | – | – | – | – | 0 | 10 | 0 | 0 | 0 | 0 | 0 | 60
7 | Cn1cc(-c2cc[n+](CCS(=O)(=O)[O-])nc2)nn1 [Compound A81] | – | – | – | – | – | – | – | – | 10 | 10 | 50 | 10 | 70 | 30 | 50 | 40
8 | Cn1cc(-c2cc[n+](CCC(=O)O)nc2)nn1 [Compound A80] | – | – | – | – | – | – | – | – | 0 | 10 | 40 | 10 | 60 | 0 | 40 | 10
